Laboratory results: patent US20050214898A1, “Methods of carotenoid production in bacteria” (priority 2004, published 2005)
Values joined by “and” are separate entries in the source; they are usually repeats but may differ in a detail not shown here. Equal values may be shown once. “Also recorded” adds a separate entry of the source.

Assays:
F. multivorum ATCC 55238 = assay: Effect of salt supplementation of the basal medium on growth and carotenoid production (shake flask); type: cell-based, Flavobacterium multivorum; conditions: for effect on growth: basal medium supplemented with salt; for effect on the volumetric production of β-carotene / β-carotene as proportion of the total carotenoid content: basal medium supplemented with salt 250 mg/100 ml
Description: (§1) Pigment extraction from bacterial cells. One ml of culture broth was centrifuged at 5000 rpm for 10 min at 4° C. The supernatant was discarded and media components of the cell pellet were washed away by repeated suspension in sterile distilled water and centrifugation. The cell mass was subjected to sonication using a sonic dismembrator (Fisher Scientific, Model number F60) in the presence of 1 ml cold, oxygen-free methanol containing 0.01% butylated hydroxy toluene (BHT) (w/v) for 30 seconds (output power 5). Methanol extraction was repeated for complete extraction of carotenoids. The sonicated sample was centrifuged to remove the white cell pellet. The supernatant contains extracted carotenoids.
(§2) High performance liquid chromatography (HPLC). The pigments in methanol were dried by vacuum evaporation in a Speedvac Plus (SC 110, Savant) and re-dissolved in one ml of HPLC mobile phase (hexane: dichloromethane: methanol: N,N′-di-isopropylethylamine (80:19.2:0.7:0.1 v/v)). HPLC separation was carried out at a flow rate of 1.0 ml min^−1 on a cyano column (Microsorb 25 cm length×4.6 mm id, Rainin Instrument Co. Woburn, Mass., U.S.A.). The column was maintained at room temperature and the HPLC detector was operated at 450 nm. Peak identities were confirmed by photodiode-array spectra and by coelution with authentic standards as necessary.
Cell growth measurement. Cell growth was monitored by measurement of turbidity at […] with a UV-visible spectrophotometer (Smart Spec™ 3000, BioRad). Samples were suitably diluted (so as to have absorbance of between 0.2 to 0.8) with double distilled water. The absorbance was measured immediately at 500 nm. For cell dry weight (CDW) estimation, the 10 ml sample was centrifuged at 10,000 g for 10 minutes and washed twice with double distilled water by suspension and centrifugation. The supernatant was discarded and the cell pellet was taken to constant weight in an oven at 80° C.
Effect of salt supplementation. F. multivorum was studied for growth and carotenoid production in the liquid basal medium supplemented with the salts listed in Table 1 (see, FIG. 7) (250 mg/100 ml) to evaluate the effect of mineral salts. The F. multivorum cultures were grown in quadruplicate in shake flask cultures at 30° C. on a rotary shaker rotates at 250 rpm.

F. multivorum = assay: Effect of TCA cycle intermediates in the growth medium on zeaxanthin production; type: cell-based, Flavobacterium multivorum; conditions: growth medium supplemented with TCA intermediate
Description: as §1
as §2, with “nm.” for “nm. Peak identities were confirmed by photodiode-array spectra and by coelution with authentic standards as necessary.”
Media optimization for zeaxanthin production.

| SMILES | effect on growth (F. multivorum ATCC 55238) | effect on the volumetric production of β-carotene (F. multivorum ATCC 55238) | β-carotene as proportion of the total carotenoid content (F. multivorum ATCC 55238) | effect on the volumetric production of zeaxanthin (F. multivorum) | other results |
| --- | --- | --- | --- | --- | --- |
| [Ca+2].[Cl-].[Cl-] [calcium chloride] | minor inhibition on growth | maximum stimulatory effect | 52 % (w/w) |  |  |
| O=C(O)CC(C(=O)O)C(O)C(=O)O (stereo not drawn) [Isocitric acid, isocitric acid] |  |  |  | maximum stimulatory effect |  |
| O=C([O-])[O-].[Na+].[Na+] [sodium carbonate] | minor inhibition on growth | positive effect; also recorded: maximum stimulatory effect | 70 % (w/w) and 69 % (w/w) |  |  |
| NC(N)=O [Urea, urea] | minor inhibition on growth | maximum stimulatory effect | 66 % (w/w) |  | effect on the volumetric production of β-carotene (F. multivorum ATCC 55238; listed as urea): positive effect; β-carotene as proportion of the total carotenoid content (F. multivorum ATCC 55238; listed as urea): 70 % (w/w) |
| [Cl-].[Li+] [Lithium chloride] |  |  |  |  | maximum β-carotene level (proportion of total carotenoid) (F. multivorum ATCC 55238; at 24 h of growth phase): 44 %, w/w; β-carotene level (proportion of total carotenoid) (F. multivorum ATCC 55238; end of fermentation (48 h)): 21 % (w/w) |
| O=C(O)CC(O)C(=O)O (stereo not drawn) [malic acid] |  |  |  | maximum stimulatory effect |  |
